In patent US12419865B2 (priority 2018, dated 2025):
pEC50: −log10 of the molar value. Like-named read-outs stand apart in the source and are kept apart here.

Tests used:
hERG channel = hERG channel (Homo sapiens, UniProt Q12809); details: pH 7.4
[1] = guinea pig, 1 h, pH 7.4
GTOV-p = assay: organism not typed; format: cell-based, Guanarito (GTOV); details: Vero, read-out: GTOV-p EC50
[2] = 1 h, pH 7.4
replicative LASV [3] = assay: microbe, parasite or virus in culture; format: cell-based, Lassa Virus; details: for EC90: Mammarenavirus lassaense
TCRV-p = assay: organism not typed; format: cell-based; details: read-out: TCRV-p EC50
LASV-p = assay: microbe, parasite or virus in culture; format: cell-based, Lassa (LASV); details: Vesicular stomatitis virus, Vero, read-out: LASV-p EC50
MACV-p = assay: organism not typed; format: cell-based, Machupo (MACV); details: Vero, read-out: MACV-p EC50
[4] = system: native replicating Tacaribe (TCRV) virus; assay: microbe, parasite or virus in culture; format: cell-based; details: Mammarenavirus tacaribeense, Vero, 120 h, read-out: TCRV EC50
[5] = 1 h, pH 7.4; remark: listed apart in the source
replicative LASV [6] = assay: microbe, parasite or virus in culture; format: cell-based, Lassa Virus; details: Mammarenavirus lassaense
[7] = 1 h, pH 7.4; remark: listed apart in the source
VSV-p = assay: microbe, parasite or virus in culture; format: cell-based; details: Vesicular stomatitis virus, Vero, read-out: VSV-p EC50
[8] = 1 h, pH 7.4; remark: listed apart in the source
JUNV-p = assay: organism not typed; format: cell-based, Junin (JUNV); details: Vero, read-out: JUNV-p EC50
[9] = 1 h, pH 7.4; remark: listed apart in the source
in vitro = details: African green monkey
[10] = mouse, in vivo, 30 mg/kg
[11] = mouse, in vivo, po
in vivo = details: mouse
[12] = read-out: EC90 in the VYR assay format
[13] = read-out: EC50 in the plaque assay format

hERG channel, sequence (Q12809 whole entry): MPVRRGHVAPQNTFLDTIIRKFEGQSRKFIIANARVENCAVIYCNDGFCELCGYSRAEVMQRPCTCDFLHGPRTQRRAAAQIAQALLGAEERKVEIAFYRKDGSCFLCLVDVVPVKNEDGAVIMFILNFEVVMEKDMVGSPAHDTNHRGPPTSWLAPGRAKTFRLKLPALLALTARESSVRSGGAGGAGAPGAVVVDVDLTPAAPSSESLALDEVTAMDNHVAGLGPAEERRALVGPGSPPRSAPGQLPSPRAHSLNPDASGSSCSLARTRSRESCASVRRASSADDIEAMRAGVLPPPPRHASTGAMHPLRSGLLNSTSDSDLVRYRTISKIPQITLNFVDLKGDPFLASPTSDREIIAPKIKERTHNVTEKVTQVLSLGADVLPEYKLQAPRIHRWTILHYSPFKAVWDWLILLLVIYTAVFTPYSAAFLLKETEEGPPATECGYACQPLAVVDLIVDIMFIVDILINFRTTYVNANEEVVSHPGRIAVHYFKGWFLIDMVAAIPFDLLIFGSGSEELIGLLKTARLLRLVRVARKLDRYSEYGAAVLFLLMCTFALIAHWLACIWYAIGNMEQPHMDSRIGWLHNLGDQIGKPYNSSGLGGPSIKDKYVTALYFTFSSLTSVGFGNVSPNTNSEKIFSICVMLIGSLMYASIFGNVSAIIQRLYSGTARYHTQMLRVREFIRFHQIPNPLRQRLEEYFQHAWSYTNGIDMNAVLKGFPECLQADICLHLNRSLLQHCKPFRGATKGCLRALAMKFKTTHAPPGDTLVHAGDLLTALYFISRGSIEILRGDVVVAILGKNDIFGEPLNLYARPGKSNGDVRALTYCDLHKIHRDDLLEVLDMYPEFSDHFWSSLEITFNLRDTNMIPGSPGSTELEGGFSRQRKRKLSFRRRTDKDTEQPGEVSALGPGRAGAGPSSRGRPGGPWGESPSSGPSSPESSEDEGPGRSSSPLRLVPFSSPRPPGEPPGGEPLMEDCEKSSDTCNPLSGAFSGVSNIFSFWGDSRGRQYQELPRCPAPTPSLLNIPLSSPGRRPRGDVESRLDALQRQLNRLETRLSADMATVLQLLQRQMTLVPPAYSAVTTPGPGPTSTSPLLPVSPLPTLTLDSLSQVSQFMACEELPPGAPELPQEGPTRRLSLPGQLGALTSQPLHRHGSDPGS

SMILES	% Inhibition at 3 uM (hERG channel) [%]	Percent parent compound remaining at 60 minutes in liver microsomes, Guinea [1] [%]	pEC50 (GTOV-p)	Percent parent compound remaining at 60 minutes in liver microsomes, Rat [2] [%]	Sl90 (replicative LASV [3])	EC90 (replicative LASV [3]; Vero, read-out: VYR Assay EC90) [nM]	EC90 (replicative LASV [3]; [12]) [nM]	pEC50 (TCRV-p; Vero)	pEC50 (TCRV-p)	pEC50 (LASV-p)	pEC50 (MACV-p)	pEC50 [4]	Percent parent compound remaining at 60 minutes in liver microsomes, Monkey [5] [%]	pEC50 (replicative LASV [6]; [13])	pEC50 (replicative LASV [6]; read-out: Plaque Assay EC50)	Percent parent compound remaining at 60 minutes in liver microsomes, Human [7] [%]	pEC50 (VSV-p)	Percent parent compound remaining at 60 minutes in liver microsomes, Mouse [8] [%]	pEC50 (JUNV-p)	CC50 (in vitro) [nM]	also measured
Cc1cc2ncc(-c3ccc(C(C)(C)O)cc3)n2cc1-c1ccc(OC(C)C)cc1 [Example B8, 2-(4-(6-(4-isopropoxyphenyl)-7-methylimidazo[1,2-a]pyridin-3-yl)phenyl)propan-2-ol]	<10	67.7	9.03	93	>9,000	< 3	1 to 3	9.49	9.49	8.54	9.21	8.67	33.7	8.52 to 9.00	> 8.52	87.6	< 5.00	77.5	9.12	27800	Percent parent compound remaining at 60 minutes in liver microsomes, Dog [9]: 77.57%
CC(C)Oc1ccc(-c2cc3c(cc2Cl)nnn3-c2ccc(OC(C)C)cc2)cc1 [Example C11, 5-chloro-1,6-bis(4-isopropoxyphenyl)-1H-benzo[d][1,2,3]triazole]	<10	>95						9.11	9.21	8.64	9.72	9.08				>95	< 5.00	>95	10.00	> 100000	
Cc1cc2ncc(-c3ccc(OC(C)(C)C)cc3)n2cc1-c1ccc(C(C)(C)O)cc1 [Example B6, 2-(4-(3-(4-(tert-butoxy)phenyl)-7-methylimidazo[1,2-a]pyridin-6-yl)phenyl)propan-2-ol]		61.5	9.96					9.80	10.00	9.15	9.89	9.02				81.5	< 5.00	81.7	9.66	4320	
Cc1cc2ncc(-c3ccc(OC(C)(C)C)cc3)n2cc1-c1ccc(OC(C)C)cc1 [Example B7, 3-(4-(tert-butoxy)phenyl)-6-(4-isopropoxyphenyl)-7-methylimidazo[1,2-a]pyridine]	<10		9.92		>11,000	< 1	1 to 3	9.80	9.70	9.05	9.38	9.13		8.52 to 9.00	> 8.52		< 5.00		9.51	8140	Oral C-Max [10]: 5.5 µg/mL; Oral T-Max [10]: 2 h; 24 hr liver concentration [11]: 63.4 ug/g liver; 24 hr plasma concentration [11]: 9.1 µg/mL; Vd (in vivo): 35.7 L/kg; clearance (in vivo): 0.822 L/h/kg; AUC(0-t) (in vivo; po, 30 mg/kg): 70.4 µg·h/mL; bioavailability (in vivo; po, 30 mg/kg): 30%
Cc1cc2ncn(-c3ccc(OC(C)(C)C)cc3)c2cc1-c1ccc(OC(C)C)cc1 [Example A2, 1-(4-(tert-butoxy)phenyl)-6-(4-isopropoxyphenyl)-5-methyl-1H-benzo[d]imidazole]		>95	10.30	>95	>13,000	< 1	1 to 3	9.82	9.92	9.42	9.85	9.48	53	8.52 to 9.00	> 8.52	95	< 5.00	93.9	9.82	7300	Percent parent compound remaining at 60 minutes in liver microsomes, Dog [9]: >95%
